Experimental data taken from patent publication US11963959B2, “Inhibitors for coronavirus” (Southwest Research Institute, priority 2021, dated 2024).
Where two headings read alike, the source gives them in different places.

Tests used:
[1] = system: SARS-CoV-2 (USA-WA1/2020); assay: microbe, parasite or virus in culture; format: cell-based; conditions: for EC50 / EC90: Severe acute respiratory syndrome coronavirus 2, Vero C1008; for SI: selectivity index=CC50/EC50
[2] = in vitro; conditions: African green monkey
[3] = PK studies in mice, subcutaneous twice-a-day dosing, plasma and lung; format: in vivo; parameters: Tmax: unit not given here; conditions: for AUC / Cmax / half-life: mouse, sc
Experimental: In addition to the above, pharmokinetic (PK) studies have been completed on additional representative compounds of the pyyroloquinazolines noted herein. More specifically, pharmokinetic studies were conducted for Compound 8, 7-(2-(fluorobenzyl)-7H-pyrrolo[3,2-f]quinazoline-1,3-diamine having the following structure:
(§1) Reference is therefore made to FIG. 8 which provides the animal (mice) compound concentration versus time plots in blood plasma for dosing of Compound 8 at 10 mg/kg, subcutaneous, twice-a-day, at time points 0, 0.5, 1, 2, 4, 8, 12 hours post dose up to 36 hours. FIG. 9 provides the animal (mice) compound concentration versus time plots also for Compound 8 in the lung at 10 mg/kg, subcutaneous, twice-a-day, at time points 0, 0.5, 1, 2, 4, 8, 12 post dose up to 36 hours.
as §1, with “FIG. 10” for “FIG. 8”, “Compound 9” for “Compound 8”, “at 25” for “at 10”, “FIG. 11” for “FIG. 9”
(§2) Reference is made to FIG. 12 which provides the animal (mice) compound concentration versus time plots in blood plasma for dosing of Compound 10 at 25 mg/kg, subcutaneous, twice-a-day, at time points 0, 0.5, 1, 2, 4, 8, 12 hours post dose up to 36 hours. FIG. 13 provides the animal (mice) compound concentration versus time plots also for Compound 10 in the lung at 25 mg/kg, subcutaneous, twice-a-day, at time points 0, 0.5, 1, 2, 4, 8, 12 hours post dose up to 36 hours.
Reference is made to FIG. 14 which provides the animal (mice) compound concentration versus time plots in blood plasma for dosing of Compound 11 at 25 mg/kg, subcutaneous, twice-a-day, at time points 0, 0.5, 1, 2, 4, 8, 12 hours post dose up to 36 hours. FIG. 15 provides the animal (mice) compound concentration versus time plots also for Compound 11 in the lung at 25 mg/kg, subcutaneous, twice-a-day, at time points 0, 0.5, 1, 2, 4, 8, 12 hours post does up to 36 hours.
as §2, with “FIG. 16” for “FIG. 12”, “Compound 12 at” for “Compound”, “10” for “10 at 25”, “FIG. 17” for “FIG. 13”, “Compound 12” for “Compound 10”, “at 10” for “at 25”

[4] = Table 1, SARS-CoV-2 strain, VeroE6, two biological replicates and 8 technical replicates, read-out: EC50
[5] = Table 1, SARS-CoV-2 strain, VeroE6, two biological replicates and 8 technical replicates, read-out: EC90
[6] = Table 2, SARS-CoV-2 strain, VeroE6, read-out: EC50
[7] = Table 2, SARS-CoV-2 strain, VeroE6, read-out: EC90
[8] = 10 mg/kg subcutaneous twice-a-day
[9] = lung, 10 mg/kg subcutaneous twice-a-day
[10] = plasma, 10 mg/kg subcutaneous twice-a-day
[11] = Table 7, SARS-CoV-2 strain, VeroE6, read-out: EC50
[12] = Table 7, SARS-CoV-2 strain, VeroE6, read-out: EC90
[13] = footnote of PK table, read-out: EC50
[14] = footnote of PK table, read-out: EC90
[15] = 25 mg/kg subcutaneous twice-a-day
[16] = lung, 25 mg/kg subcutaneous twice-a-day
[17] = plasma, 25 mg/kg subcutaneous twice-a-day

`Nc1nc(N)c2c(ccc3c2ccn3Cc2ccccc2C(F)(F)F)n1` [Compound 1, 7-(2-(trifluoromethyl)benzyl)-7H-pyrrolo[3,2-f]quinazoline-1,3-diamine] gave an EC50 [1] of 30 ± 10 nM, an EC90 [1] of 70 ± 30 nM and an SI ([1]; Table 1) of 66.8. It also gave a CC50 [2] of 2000 ± 250 nM.

`Cc1ccccc1Cn1ccc2c3c(N)nc(N)nc3ccc21` [Compound 2, 7-(2-methylbenzyl)-7H-pyrrolo[3,2-f]quinazoline-1,3-diamine] showed an EC50 [1, 4] of 20 ± 4 nM, an EC90 [1, 5] of 32 ± 50 nM and an SI ([1]; Table 1) of 245. It also gave a CC50 [2] of 4940 ± 550 nM.

`Cc1cc2c3c(N)nc(N)nc3ccc2n1Cc1ccc(C#N)cc1` [Compound 3, 4-((1,3-diamino-8-methyl-7H-pyrrolo[3,2-f]quinazolin-7-yl)methyl)benzonitrile] gave an EC50 [1, 4] of 13 ± 5 nM, an EC90 [1, 5] of 30 ± 20 nM and an SI ([1]; Table 1) of 477.3. For the same compound, the CC50 [2] was 6410 ± 700 nM.

With `C=CCn1ccc2c3c(N)nc(N)nc3ccc21` [Compound 4, 7-allyl-7H-pyrrolo[3,2-f]quinazoline-1,3-diamine] the EC50 [1, 4] was 470 ± 210 nM, the EC90 [1, 5] was 850 ± 460 nM and the SI ([1]; Table 1) was >63.8. For the same compound, the CC50 [2] was > 30000 nM.

In the case of `O=C(c1sc(-c2ccccc2)nc1-c1ccccc1)N1C[C@H]2CNC[C@H]2C1` [Compound 5, (2,4-diphenylthiazol-5-yl)((3aR,6aS)-hexahydropyrrolo[3,4-c]pyrrol-2(1H)-yl)methanone], the EC50 [1, 6] is reported as 8300 nM, the EC90 [1, 7] is reported as 75000 nM and the SI ([1]; Table 2) is reported as 9.6. The CC50 [2] was 79700 nM.

In the case of `O=C(c1sc(-c2ccccc2)nc1-c1ccc(Cl)cc1)N1C[C@H]2CNC[C@H]2C1` [Compound 6, (4-(4-chlorophenyl)-2-phenylthiazol-5-yl)((3aR,6aS)-hexahydropyrrolo[3,4-c]pyrrol-2(1H)-yl)methanone], the EC50 [1, 6] is reported as 4200 nM, the EC90 [1, 7] is reported as 13300 nM and the SI ([1]; Table 2) is reported as >4.0. It also gave a CC50 [2] of 17100 nM.

`O=C(c1sc(-c2ccc(Cl)cc2)nc1-c1ccccc1)N1C[C@H]2CNC[C@H]2C1` [Compound 7, (2-(4-chlorophenyl)-4-phenylthiazol-5-yl)((3aR,6aS)-hexahydropyrrolo[3,4-c]pyrrol-2(1H)-yl)methanone] gave an EC50 [1, 6] of 4700 nM, an EC90 [1, 7] of 7960 nM and an SI ([1]; Table 2) of 2.3. The CC50 [2] was 11000 nM.

For `Nc1nc(N)c2c(ccc3c2ccn3Cc2ccccc2F)n1` [Compound 8], the tolerability [3, 8] was “relatively well-tolerated”, the “Time > EC90” value [3, 9] was 98.3% and the Tmax [3, 9] was 98.3. It also gave an AUC [3, 9] of 13000 ng·h/mL, a Cmax [3, 9] of 4140 ng/mL and a half-life [3, 9] of 3.74 h. The AUC [3, 10] was 2140 ng·h/mL, the Cmax [3, 10] was 675 ng/mL and the half-life [3, 10] was 3.1 h. For the same compound, the “Time > EC90” value [3, 10] was 65%, the Tmax [3, 10] was 1.4 and the EC50 [1, 11] was 50 ± 31 nM. The EC90 [1, 12] was 160 ± 142 nM, the EC50 [1, 13] was 0.0246 µg/mL and the EC90 [1, 14] was 0.0799 µg/mL. For the same compound, the SI ([1]; Table 7) was 98 and the CC50 [2] was 4890 ± 4700 nM.

In the case of `Nc1nc(N)c2c(ccc3c2ccn3Cc2cccnc2)n1` [Compound 9, 7-(pyridin-3-ylmethyl)-7H-pyrrolo[3,2-f]quinazoline-1,3-diamine], the tolerability [3, 15] is reported as “relatively well-tolerated”, the “Time > EC90” value [3, 16] is reported as 73% and the Tmax [3, 16] is reported as 1.9. It also gave an AUC [3, 16] of 12400 ng·h/mL, a Cmax [3, 16] of 3320 ng/mL and a half-life [3, 16] of 2.8 h. The AUC [3, 17] was 1190 ng·h/mL, the Cmax [3, 17] was 365 ng/mL and the half-life [3, 17] was 2.1 h. The “Time > EC90” value [3, 17] was 55%, the Tmax [3, 17] was 1.6 and the EC50 [1, 11] was 160 ± 61 nM. For the same compound, the EC90 [1, 12] was 360 ± 193 nM, the EC50 [1, 13] was 0.058 µg/mL and the EC90 [1, 14] was 0.142 µg/mL. The SI ([1]; Table 7) was >187 and the CC50 [2] was > 30000 nM.

With `Nc1nc(N)c2c(ccc3c2ccn3Cc2ccncc2)n1` [Compound 10, 7-(pyridin-4-ylmethyl)-7H-pyrrolo[3,2-f]quinazoline-1,3-diamine] the tolerability [3, 15] was “relatively well-tolerated”, the “Time > EC90” value [3, 16] was 63% and the Tmax [3, 16] was 1.2. The AUC [3, 16] was 7820 ng·h/mL, the Cmax [3, 16] was 2910 ng/mL and the half-life [3, 16] was 2.7 h. It also gave an AUC [3, 17] of 1600 ng·h/mL, a Cmax [3, 17] of 678 ng/mL and a half-life [3, 17] of 2.1 h. For the same compound, the “Time > EC90” value [3, 17] was 44%, the Tmax [3, 17] was 1.2 and the EC50 [1, 11] was 80 ± 12 nM. For the same compound, the EC90 [1, 12] was 240 ± 110 nM, the EC50 [1, 13] was 0.0813 µg/mL and the EC90 [1, 14] was 0.221 µg/mL. For the same compound, the SI ([1]; Table 7) was >375 and the CC50 [2] was > 30000 nM.

For `Nc1nc(N)c2c(ccc3c2ccn3Cc2ccccn2)n1` [Compound 11, 7-(pyridin-2-ylmethyl)-7H-pyrrolo[3,2-f]quinazoline-1,3-diamine], the tolerability [3, 15] was “relatively well-tolerated”, the “Time > EC90” value [3, 16] was 85% and the Tmax [3, 16] was 1.28. For the same compound, the AUC [3, 16] was 14600 ng·h/mL, the Cmax [3, 16] was 3270 ng/mL and the half-life [3, 16] was 3.3 h. It also gave an AUC [3, 17] of 1170 ng·h/mL, a Cmax [3, 17] of 348 ng/mL and a half-life [3, 17] of 2.6 h. The “Time > EC90” value [3, 17] was 45%, the Tmax [3, 17] was 1.6 and the EC50 [1, 11] was 120 ± 50 nM. The EC90 [1, 12] was 360 ± 230 nM, the EC50 [1, 13] was 0.0435 µg/mL and the EC90 [1, 14] was 0.142 µg/mL. For the same compound, the SI ([1]; Table 7) was 128 and the CC50 [2] was 15500 ± 10600 nM.

In the case of `Nc1nc(N)c2c(ccc3c2ccn3CC2CCCCC2)n1` [Compound 12, 7-(cyclohexylmethyl)-7H-pyrrolo[3,2-f]quinazoline-1,3-diamine], the tolerability [3, 8] is reported as “relatively well-tolerated”, the “Time > EC90” value [3, 9] is reported as 100% and the Tmax [3, 9] is reported as 1.4. The AUC [3, 9] was 34100 ng·h/mL, the Cmax [3, 9] was 10100 ng/mL and the half-life [3, 9] was 3.1 h. For the same compound, the AUC [3, 10] was 968 ng·h/mL, the Cmax [3, 10] was 348 ng/mL and the half-life [3, 10] was 4.2 h. For the same compound, the “Time > EC90” value [3, 10] was 64%, the Tmax [3, 10] was 1.4 and the EC50 [1, 11] was 120 ± 87 nM. It also gave an EC90 [1, 12] of 320 ± 320 nM, an EC50 [1, 13] of 0.0177 µg/mL and an EC90 [1, 14] of 0.0325 µg/mL. The SI ([1]; Table 7) was 41 and the CC50 [2] was 4910 ± 200 nM.
